Drawing on patent US20260226065A1, “SUBSTITUTED BENZENE COMPOUND” (DAIICHI SANKYO COMPANY, LIMITED, priority 2023, published 2026), this text covers IC50 for twelve compounds.

Structures are written as SMILES. Where a name gives a salt, the structure may show the parent alone.

T1 sequence (Q96P20 whole entry): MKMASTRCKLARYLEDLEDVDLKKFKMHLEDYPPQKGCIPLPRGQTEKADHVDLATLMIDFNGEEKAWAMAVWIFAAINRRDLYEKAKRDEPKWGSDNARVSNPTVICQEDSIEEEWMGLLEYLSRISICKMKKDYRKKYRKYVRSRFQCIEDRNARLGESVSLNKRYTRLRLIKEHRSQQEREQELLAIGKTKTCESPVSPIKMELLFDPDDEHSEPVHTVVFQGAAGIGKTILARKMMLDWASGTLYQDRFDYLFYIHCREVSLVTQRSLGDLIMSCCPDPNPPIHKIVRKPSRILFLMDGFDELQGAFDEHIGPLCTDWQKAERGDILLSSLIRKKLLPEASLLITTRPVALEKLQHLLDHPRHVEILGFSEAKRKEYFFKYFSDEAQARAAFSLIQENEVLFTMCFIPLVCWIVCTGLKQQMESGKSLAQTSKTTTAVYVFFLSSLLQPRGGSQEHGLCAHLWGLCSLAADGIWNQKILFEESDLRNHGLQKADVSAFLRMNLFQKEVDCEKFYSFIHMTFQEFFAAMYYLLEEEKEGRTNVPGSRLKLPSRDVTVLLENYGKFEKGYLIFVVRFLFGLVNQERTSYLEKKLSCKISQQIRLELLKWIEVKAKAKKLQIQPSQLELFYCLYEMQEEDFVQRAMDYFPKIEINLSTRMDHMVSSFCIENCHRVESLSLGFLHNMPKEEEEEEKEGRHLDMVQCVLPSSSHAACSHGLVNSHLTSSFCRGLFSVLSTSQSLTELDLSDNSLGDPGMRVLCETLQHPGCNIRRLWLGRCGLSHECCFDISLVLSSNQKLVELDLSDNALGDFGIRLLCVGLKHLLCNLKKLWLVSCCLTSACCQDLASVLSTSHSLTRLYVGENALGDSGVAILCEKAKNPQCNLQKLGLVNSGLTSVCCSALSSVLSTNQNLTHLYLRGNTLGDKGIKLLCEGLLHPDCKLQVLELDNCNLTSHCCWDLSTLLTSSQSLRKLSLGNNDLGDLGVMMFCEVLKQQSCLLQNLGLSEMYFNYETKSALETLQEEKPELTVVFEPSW

This assay concerns the target T1, NLRP3 inflammasome (Homo sapiens, UniProt Q96P20).
T1 construct: endogenous in cells; host or cells: THP-1 (human monocyte-derived), PMA-differentiated, Nigericin-stimulated
Description: In vitro IL-1β production test (PMA-differentiated THP-1 cells, Nigericin stimulation, AlphaLISA). Conditions: inhibition of IL-1β production; THP-1 cells differentiated with 200 nM PMA; 0.015 mM Nigericin; 2 hours. It is filed as cell-based. How it is done:
Human monocyte-derived THP-1 cells were cultured for one day in 10% bovine serum-containing RPMI-1640 medium (Thermo #A10491-01) supplemented with 200 nM phorbol 12-myristate 13-acetate (PMA, Sigma #P8139) to induce differentiation.
NLRP3 inflammasome was induced by replacing the culture medium with bovine serum-free RPMI-1640 medium supplemented with 0.015 mM Nigericin (Sigma #SML1779) and the test compound of known concentrations.
After 2 hours, the culture medium supernatant was collected and the IL-1β protein concentration was measured using the AlphaLISA (registered trademark) assay (PerkinElmer #AL220C).
The IL-1β concentration without the addition of the test compound and with Nigericin stimulation was set as 0% inhibitory activity, and the IL-1β concentration without Nigericin stimulation was set as 100% inhibitory activity, and the inhibition rate (% inhibition) of the test compound at each added concentration was calculated.
The % inhibition value was subjected to sigmoid fitting using a logistic regression model to calculate the 50% inhibitory concentration (IC50 value).
In turn, `Cc1cc(C(F)(F)F)cc(O)c1-c1cc2c(nn1)N([C@@H]1CCCN(C(C)C)C1)CC2` [Example 15, 3-methyl-2-{7-[(3R)-1-(propan-2-yl)piperidin-3-yl]-6,7-dihydro-5H-pyrrolo[2,3-c]pyridazin-3-yl}-5-(trifluoromethyl)phenol] displayed an IC50 of 4.86 nM.
For `Cc1cc(C(C)(F)F)cc(O)c1-c1cc2c(C)cn([C@H]3C[C@@](C)(O)C3)c2nn1` [Example 69, 5-(1,1-difluoroethyl)-2-{7-[(1s,3s)-3-hydroxy-3-methylcyclobutyl]-5-methyl-7H-pyrrolo[2,3-c]pyridazin-3-yl}-3-methylphenol] the value was 47.8 nM; for `Cc1cc(C(F)(F)F)cc(O)c1-c1cc2ccn(C34CCCC(O)(C3)C4)c2nn1` [Example 88, 5-{3-[2-hydroxy-6-methyl-4-(trifluoromethyl)phenyl]-7H-pyrrolo[2,3-c]pyridazin-7-yl}bicyclo[3.1.1]heptan-1-ol], 43.1 nM; for `CCc1cc(C)c(-c2cc3c(C)cn([C@H]4C[C@@](C)(O)C4)c3nn2)c(O)c1` [Example 62, 5-ethyl-2-{7-[(1s,3s)-3-hydroxy-3-methylcyclobutyl]-5-methyl-7H-pyrrolo[2,3-c]pyridazin-3-yl}-3-methylphenol], 70.8 nM.
For `Cc1cc(C(F)(F)F)cc(O)c1-c1cc2c(nn1)N([C@@H]1CCCN(C)C1)CCN2C` [Example 35, 3-methyl-2-{5-methyl-8-[(3R)-1-methylpiperidin-3-yl]-5,6,7,8-tetrahydropyrazino[2,3-c]pyridazin-3-yl}-5-(trifluoromethyl)phenol] the value was 25.6 nM.
With `Cc1cc(C(F)(F)F)cc(O)c1-c1cc2c(C)cn(C34COCC(O)(C3)C4)c2nn1` [Example 65, 5-{3-[2-hydroxy-6-methyl-4-(trifluoromethyl)phenyl]-5-methyl-7H-pyrrolo[2,3-c]pyridazin-7-yl}-3-oxabicyclo[3.1.1]heptan-1-ol] the figure was 47 nM; with `Cc1cc(C(F)(F)F)cc(O)c1-c1cc2c(nn1)N([C@H]1C[C@@](C)(O)C1)CC2` [Example 40, 2-{7-[(1s,3s)-3-hydroxy-3-methylcyclobutyl]-6,7-dihydro-5H-pyrrolo[2,3-c]pyridazin-3-yl}-3-methyl-5-(trifluoromethyl)phenol monohydrochloride], 162 nM.
In turn, `Cc1cc(C(F)(F)F)cc(O)c1-c1cc2c(nn1)N([C@@H]1CCCN(C3CCOC3)C1)CC2` (mixture of isomers) [Example 57, 3-methyl-2-{7-[(3R)-1-(tetrahydrofuran-3-yl)piperidin-3-yl]-6,7-dihydro-5H-pyrrolo[2,3-c]pyridazin-3-yl}-5-(trifluoromethyl)phenol] registered an IC50 of 57.2 nM.
For `Cc1cc(C(F)(F)F)cc(O)c1-c1cc2c(C(F)(F)F)cn([C@H]3C[C@@](C)(O)C3)c2nn1` [Example 59, 2-{7-[(1s,3s)-3-hydroxy-3-methylcyclobutyl]-5-(trifluoromethyl)-7H-pyrrolo[2,3-c]pyridazin-3-yl}-3-methyl-5-(trifluoromethyl)phenol] the value was 95.8 nM.
For `Cc1cc(C(F)(F)F)cc(O)c1-c1cc2c(nn1)N(c1ncc(F)cn1)[C@@H]1CCO[C@H]21` (single isomer, unassigned) [Example 98, 2-[(4bR,7aR or 4bS,7aS)-8-(5-fluoropyrimidin-2-yl)-6,7,7a,8-tetrahydro-4bH-furo[2′,3′:4,5]pyrrolo[2,3-c]pyridazin-3-yl]-3-methyl-5-(trifluoromethyl)phenol] the value was 13.8 nM; for `Cc1cc(C(F)F)cc(O)c1-c1cc2c(C)cn([C@H]3C[C@@](C)(O)C3)c2nn1` [Example 92, 5-(difluoromethyl)-2-{7-[(1s,3s)-3-hydroxy-3-methylcyclobutyl]-5-methyl-7H-pyrrolo[2,3-c]pyridazin-3-yl}-3-methylphenol], 59.2 nM.
For `CCN1CCC[C@@H](n2cc(OC)c3cc(-c4c(C)cc(C(F)(F)F)cc4O)nnc32)C1` [Example 77, 2-{7-[(3R)-1-ethylpiperidin-3-yl]-5-methoxy-7H-pyrrolo[2,3-c]pyridazin-3-yl}-3-methyl-5-(trifluoromethyl)phenol] the value was 14 nM.
